Measured values published in patent US12708622B2, “Methods of treating cancer and inhibiting TYK2 and MEK” (Washington University, priority 2021, dated 2026).

Columns and labels:
WU-356 cells = experiment: IncuCyte live cell proliferation assay (percent cell confluence); type: cell-based, human; settings: 3 days
Method: (§2) To gain further insight into the role of TYK2 in MPNST, the effect of pharmacologic inhibition of TYK2 was examined using IncuCyte Live Cell Imaging experiments for proliferation and cell death assay with YOYO-1 green fluorescent dye.
(§3) MPNST cell lines were plated at 2500 cells/well in 96 well plates in growth media and incubated overnight. […] Cells were imaged every 1-2 hours by IncuCyte Zoom Live-Cell Analysis System (Essen Bioscience, Sartorius, Ann Arbor, MI). Cell proliferation was determined as percent confluence from phase images and was analyzed by IncuCyte image analysis software (Sartorius). […] IC50 values were calculated in GraphPad Prism version 9 (GraphPad Software, San Diego, CA).

[1] = test system: JW23.3 MPNST xenograft tumors; experiment: MPNST tumor growth in immunocompetent C57BL6 mice; settings: JW23.3 in immunocompetent mice; daily oral gavage; 1.5 mg/kg deucravacitinib, 30 mg/kg mirdametinib (FIG. 10 legend)
[2] = test system: JW23.3, JH-2-002, WU-356 and WU-386 cells; experiment: IncuCyte cell confluence IC50 across the MPNST cell line panel; type: cell-based, murine and human; settings: 72 h, 3 days, read-out: IC50 for inhibition of cell confluence, range over cell lines
Method: as §3

JH-2-002 cells = experiment: IncuCyte live cell proliferation assay (percent cell confluence)
Method: as §2
(§4) MPNST cell lines were plated at 2500 cells/well in 96 well plates in growth media and incubated overnight. […] Cells were imaged every 1-2 hours by IncuCyte Zoom Live-Cell Analysis System (Essen Bioscience, Sartorius, Ann Arbor, MI). Cell proliferation was determined as percent confluence from phase images and was analyzed by IncuCyte image analysis software (Sartorius). For cell death assays, 50 nmol/L YOYO-1 green fluorescent dye (Thermo Fisher) was added to treatment medium, and apoptosis was calculated as green objects normalized to the confluency factor and the initial timepoint. IC50 values were calculated in GraphPad Prism version 9 (GraphPad Software, San Diego, CA).

WU-386 MPNST xenograft = experiment: MPNST xenograft tumor growth in NRG mice; settings: WU-386 in NRG mice; daily oral gavage; single agents
[3] = Mouse body weight and health in the MPNST tumor models; parameters: species or system mice; settings: in vivo
Method: . […] Mouse body weight, an indicator of health, was measured 2-3 times per week.

WU-386 cells = experiment: IncuCyte live cell proliferation assay (percent cell confluence); type: cell-based, human; settings: 3 days
Method: as §2, §3

2-009 cells [4] = experiment: IncuCyte assay with YOYO-1 green fluorescence (apoptosis); type: cell-based; settings: over 3 days
Method: (§1) Cell confluence and apoptosis were analyzed by IncuCyte live cell imaging assays. Drug combination synergy was calculated using Synergy Finder software.

2-009 cells [5] = experiment: IncuCyte live cell imaging assay (cell confluence); type: cell-based; settings: over 3 days
Method: as §1

JW23.3 cells [6] = experiment: IncuCyte cell death assay with YOYO-1 green fluorescent dye (apoptosis); settings: 72 hours
Method: as §2, §4

JW23.3 cells [7] = experiment: IncuCyte live cell proliferation assay (percent cell confluence); type: cell-based, murine
Method: as §2, §4

JAK1-3 = settings: at clinically relevant doses; cited from earlier work

Compound | IC50 (WU-356 cells; Homo sapiens, 72 h, WU-356 MPNST cell line, IncuCyte, read-out: IC50 for inhibition of cell confluence) | tumor volume relative to vehicle control [1] | IC50 [2] | IC50 (JH-2-002 cells; Homo sapiens, 72 h, read-out: IC50 for inhibition of cell confluence) | tumor size (WU-386 MPNST xenograft) | mouse body weight / adverse health effects [3] | IC50 (WU-386 cells; Homo sapiens, 72 h, WU-386 MPNST cell line, IncuCyte, read-out: IC50 for inhibition of cell confluence) | apoptosis (2-009 cells [4]) | cell confluence (2-009 cells [5]) | apoptosis (JW23.3 cells [6]) | percent cell confluence (JW23.3 cells [7]; JW23.3 cells, 72 hours) | proliferation (cell confluence) (WU-356 cells; WU-356 cells) | percent cell confluence / proliferation (JH-2-002 cells; JH-2-002 cells, 72 hours) | block of JAK1-3 (JAK1-3) | IC50 (JW23.3 cells [7]; Mus musculus, 72 h, read-out: IC50 for inhibition of cell confluence) | proliferation (cell confluence) (WU-386 cells; WU-386 cells)
O=C(NOC[C@H](O)CO)c1ccc(F)c(F)c1Nc1ccc(I)cc1F [mirdametinib] | 1330 nM | nearly half the volume of vehicle control | 220 to 1330 nM | 220 nM | non-significant trend toward decreased tumor size | did not significantly decrease mouse body weight | 1060 nM |  |  |  |  |  |  |  |  | 
N#Cc1cc(F)c(C(=O)Nc2ccnc(NC(=O)C3C[C@H]3F)c2)c(Cl)c1 (stereo partly drawn) [TC-JL-37] |  |  |  |  |  |  |  | increased apoptosis | decreased cell confluence | increased apoptosis | decreased cell confluence |  |  |  |  | 
[2H]C([2H])([2H])NC(=O)c1nnc(NC(=O)C2CC2)cc1Nc1cccc(-c2ncn(C)n2)c1OC [deucravacitinib] |  | nearly half the volume of vehicle control |  |  | non-significant trend toward decreased tumor size |  |  |  |  |  |  | inhibited proliferation | inhibited proliferation | does not block JAK1-3 at clinically relevant doses | 6760 nM | inhibited proliferation
